{"source": "patent US20100322861A1", "about": "“ENGINEERED CELLS, IMAGING REPORT GENE/PROBE SYSTEMS, AND METHODS OF IMAGING” (priority 2007, published 2010)", "key": {"[1]": {"tested_on": "cytolytic T cells expressing IL13 zetakine and HSV1-tk genes", "experiment": "[18F]FHBG PET imaging of infused HSV1-tk expressing CTLs in a glioma patient", "type": "in vivo, human", "description": "The CTLs were imaged with the PET reporter probe 9-[4-[^18F]Fluoro-3-(hydroxymethyl)butyl]guanine ([^18F]FHBG), because they constitutively express the PET reporter gene (PRG) HSV1-tk. (4) [^18F]FHBG is approved by the FDA as an investigational new drug (IND #61,880) for PET imaging at UCLA and Stanford University nuclear medicine clinics. UCLA's medical internal review board (M-IRB) has approved [^18F]FHBG PET imaging in normal volunteers, glioma patients and glioma patients who are enrolled in adoptive cellular gene therapy, when the infused cells express the PRG HSV1-tk. Stanford University's M-IRB has approved [^18F]FHBG PET imaging in glioma patients. COHNMC's M-IRB has approved referral of the patient's enrolled in the CTL therapy study for [^18F]FHBG PET imaging at UCLA.\n254.62 MBq (6.88 mCi) [^18F]FHBG was injected through the other iv line (FDA limit 7 mCi). At approximately two-hours and fifteen minutes after [^18F]FHBG injection, the whole-body PET emission scan started from the patient's head to bottom, using an ECAT EXACT HR+PET scanner (CTI/Siemens, Inc., Knoxville, Tenn.). The whole-body scan consisted of 7 bed positions (7-minutes each). Three minute transmission scans followed each 7 minute emission scans. A two bed position head scan immediately followed completion of the whole-body scan. […] In addition, enhanced [^18F]FHBG accumulation was observed near the patient's corpus callosum. This indicates trafficking of infused CTLs to the remote corpus callosum tumor. The level of [^18F]FHBG accumulation is greater than what has been observed in control GBM patients who had tumor resections or intact tumors. Table 1 (FIG. 6) includes quantitative data of tumor to background ratios, comparing [^18F]FHBG accumulation levels of the CTL infused patient described in this example and control patients. Relative to similar controls, [^18F]FHBG accumulation is 2.6× higher in the patient's tumor resection site and 2.8× higher in the remote corpus callosum tumor site. […] Finally, a stereotactic biopsy of the left sided corpus callosum within a week of the [^18F]FHBG PET scan confirmed the presence of malignant disease infiltrated with CD8+ T cells."}, "[2]": {"details": "in vivo, iv", "source_text": "Two coronal slices are shown to illustrate activity within the liver, gall-bladder, intestines, kidneys and bladder, which are organs involved with [^18F]FHBG's clearance from the body."}, "HSV1-TK": {"tested_on": "HSV1-TK", "experiment": "Cell culture uptake assay of [3H]Penciclovir into patient CTLs versus control Jurkat cells", "type": "cell-based, Herpes Simplex Virus 1", "details": "about 1 μCi/ml, control Jurkat cells not expressing HSV1-tk", "protocol": "FIG. 5 is a bar graph that illustrates the uptake of [^3H]Penciclovir into the genetically engineered CTL clone that was infused into the patient and control Jurkat cells. The autologous patient CTLs were genetically engineered to constitutively express HSV1-tk. The control cells expressed Firefly luciferase instead of HSV1-tk. […] The symbol “*” indicates significant difference between uptake of [^3H]PCV into patient CTLs vs control cells at 4 hours (P<0.001).\nThe patient of the present example received a total of approximately 1×10^9 CTLs within a five-week period of direct infusions (one week break between weeks 2 and 4). It is both possible that these cells proliferate or some die once injected into the patient. The number of cells present within the tumor resection site and the intact tumor near the corpus callosum could not be specifically quantified. That would require a pharmacokinetic model ((2004) J Nucl Med 45, 1560-1570, which is incorporated herein by reference) for [^18F]FHBG at brain tumor sites and knowing HSV1-tk expression levels per CTL at imaging time. […] This low level of activity explains why [^18F]FHBG accumulation in CTL infusion sites and intact tumor is only 2-3× higher than background. In fact during uptake assay cultured cells were exposed to a relatively constant concentration of about 1 μCi/ml; whereas assuming homogeneous distribution of [^18F]FHBG in 6 liters of blood, the maximum concentration CTLs would have been exposed to within the first 1-2 minutes after injection would have been about 1 μCi/ml, but then there is a rapid decline in blood concentration of [^18F]FHBG within the first 20-40 minutes following it's injection. Despite that, [^18F]FHBG's ability to detect the CTLs may be due to the low background within the surrounding brain tissue and the presence of a large number of CTLs."}, "HSV1-tk expressing CTLs": {"tested_on": "HSV1-tk expressing CTLs", "experiment": "In vitro assays of Ganciclovir induced cell death of HSV1-tk expressing CTLs", "type": "cell-based, human", "details": "previous in vitro assays"}}}
{"compound": "Nc1nc2c(ncn2CCC(CO)C[18F])c(=O)[nH]1", "note": "(stereo not drawn) [[^18F]FHBG, 9-[4-[^18F]fluoro-3-(hydroxymethyl)butyl]guanine]", "values": [{"measurement": "tumor 2/meninges [18F]FHBG activity ratio", "setting": "[1]; CTL infused patient, non-resected tumor near corpus callosum, images approximately two hours after injection", "value": 1.57}, {"measurement": "tumor 1/meninges [18F]FHBG activity ratio", "setting": "[1]; CTL infused patient, surgically resected tumor site, images approximately two hours after injection", "value": 1.75}, {"measurement": "[18F]FHBG accumulation versus background", "setting": "[1]; CTL infusion sites and intact tumor", "value": "2-3 ×"}, {"measurement": "average intact tumor site to meninges [18F]FHBG activity ratio", "setting": "[1]; control patients (no CTLs)", "value": 0.44}, {"measurement": "average resected tumor site/meninges [18F]FHBG activity ratio", "setting": "[1]; control patients (no CTLs)", "value": 0.86}, {"measurement": "[18F]FHBG accumulation relative to similar controls", "setting": "[1]; patient's tumor resection site", "value": 2.6, "unit": "×"}, {"measurement": "[18F]FHBG accumulation relative to similar controls", "setting": "[1]; remote corpus callosum tumor site", "value": 2.8, "unit": "×"}, {"measurement": "[18F]FHBG accumulation in the CTL infused patient versus control patients", "setting": "[1]; resection site and intact tumor, quantitative analysis", "value": "greater than two times higher"}, {"measurement": "clearance from tissues not involved in its clearance", "setting": "[2]; human", "value": "clears very rapidly"}, {"measurement": "time of rapid decline in blood concentration following injection", "setting": "[2]", "value": "20 to 40", "unit": "min"}]}
{"compound": "[^3H]Penciclovir", "values": [{"measurement": "[3H]PCV uptake into CTL clone relative to control cells", "setting": "HSV1-TK; 1 h", "value": 2.7, "unit": "×"}, {"measurement": "[3H]PCV uptake into CTL clone relative to control cells", "setting": "HSV1-TK; 1 h, listed as [^3H]PCV", "value": "approximately 3 ×"}, {"measurement": "[3H]PCV uptake into CTL clone relative to control cells", "setting": "HSV1-TK; 4 h", "value": 9.3, "unit": "×"}, {"measurement": "[3H]PCV uptake into CTL clone relative to control cells", "setting": "HSV1-TK; 4 h, listed as [^3H]PCV", "value": "~9", "unit": "×"}]}
{"compound": "Nc1nc(O)c2ncn(COC(CO)CO)c2n1", "note": "[Ganciclovir]", "values": [{"measurement": "Ganciclovir induced cell death of CTLs", "setting": "HSV1-tk expressing CTLs", "value": "susceptibility to Ganciclovir induced cell death"}]}
